Measurements taken from patent US20150283269A1, “RECONSTITUTED HUMAN IMMUNE SYSTEM IN A PATIENT DERIVED XENOGRAFT MOUSE MODEL” (Crown Bioscience Inc., priority 2014, published 2015).

Test system: GA 0055 tumor
Assay: Anti-tumor activity against GA 0055 gastric tumor PDX in HuMice and NOD/SCID mice
Type: in vivo, mouse
Text: In yet another example of the utility of the HuPrime™ 3.0 mouse model (PDX human immunocompetent NOD/SCID mouse with CD34^+ hSC+PDX gastric tumor), patient cells derived from a human patient diagnosed with over-expressing gastric cancer, GA 0055, were engrafted into HuPrime™ 3.0 mice.
The HuPrime™ 3.0 mice engrafted with GA 0055 were divided into six groups, four mice each. Three groups were engrafted with UCB human stem cells and three groups were not.
Patient tumor fragments of NSCLC or gastric tumor tissue derived from diseased seed mice were engrafted 2.5 weeks after the CD34+ cell inoculation in order to create patient derived xenograft (PDX) models. Solid tumor sample fragments from seed mice inoculated with selected primary human lung or gastric cancer tissues were harvested and used for inoculation into mice. Each mouse was inoculated subcutaneously at the right flank with one tumor fragment (2-3 mm in diameter) for tumor development. The treatments were started when mean tumor size reached approximately 100-150 mm^3 The transplanted animals were monitored by weekly bleed and FACS analysis for hCD45^+ cells in peripheral blood.

For N.N.[Cl][Pt][Cl] [Cisplatin], the “treatment response, stained GA 0055 tumor cross-sections” value (5 mg/kg Cisplatin, H&E stained cross-section (40x10), FIG. 6A) was “effective” and the tumor growth (HuMice mice (reconstituted human immunocompetent) engrafted with GA 0055, with vs without treatment, FIG. 7A, 7C) was “slowed tumor growth”.
